The values that follow come from publication PMC10779433, “Bidirectional Allosteric Coupling between PIP2 Binding and the Pore of the Oncochannel TRPV6” (International Journal of Molecular Sciences, 2024).

Where two headings read alike, the source gives them in different places. Residues, ends and D or L forms follow the SMILES beside them. *: point of attachment. Palmitoyl = CCCCCCCCCCCCCCCC(=O)*

For one series, the target named is T1, TRPV6 WT (Homo sapiens, UniProt Q9H1D0).
T1 construct: expressed in transfected cells; host or cells: HEK293 cells, transient transfection
T1 sequence (Q9H1D0 41-765 limits assumed): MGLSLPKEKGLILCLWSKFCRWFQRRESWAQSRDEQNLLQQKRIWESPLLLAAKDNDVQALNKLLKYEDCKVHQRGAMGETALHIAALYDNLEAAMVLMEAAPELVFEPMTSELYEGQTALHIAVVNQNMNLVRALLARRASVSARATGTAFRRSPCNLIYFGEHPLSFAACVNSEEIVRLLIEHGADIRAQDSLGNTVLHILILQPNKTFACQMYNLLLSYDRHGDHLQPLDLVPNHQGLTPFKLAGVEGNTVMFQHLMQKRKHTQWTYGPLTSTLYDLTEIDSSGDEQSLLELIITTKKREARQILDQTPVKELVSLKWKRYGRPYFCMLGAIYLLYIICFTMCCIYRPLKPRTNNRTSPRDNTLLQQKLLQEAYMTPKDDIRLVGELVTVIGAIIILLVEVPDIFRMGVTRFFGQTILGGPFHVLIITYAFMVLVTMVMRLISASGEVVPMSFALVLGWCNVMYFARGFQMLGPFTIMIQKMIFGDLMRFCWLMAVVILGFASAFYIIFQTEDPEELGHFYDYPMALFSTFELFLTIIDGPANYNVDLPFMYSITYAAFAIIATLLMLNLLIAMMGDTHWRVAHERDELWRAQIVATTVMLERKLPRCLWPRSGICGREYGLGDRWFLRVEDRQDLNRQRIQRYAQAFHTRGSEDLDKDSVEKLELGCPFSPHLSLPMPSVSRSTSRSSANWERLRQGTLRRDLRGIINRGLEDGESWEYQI
Briefly: Whole-cell patch clamp, TRPV6 WT. It is filed as cell-based. To be noted: for re-activation after washout with DMSO: 0.1 μM cis-22a or 10 μM pal-PIP2 peptide, then diluted DMSO, n=4 each, Figure S6C,D. The text has this:
(§1) N-terminally TagRFP-labeled human TRPV6 (725 aa) was kindly provided by R. Bhardwaj and M. Hediger (University of Bern, Bern, Switzerland). This variant is translated from the first ATG codon and thus deviates from the non-ATG-initiated protein which is expressed in vivo (accession number NM_018646.6) by lacking 40 amino acids of the very N-terminus. For N-terminal labeling with EYFP, TRPV6 was cloned into pEYFP-C1 (Clontech) via EcoRI and SacII restriction sites. Mutations (F468A, R470A, F472A, K484A/Q, G488R, R492A/Q, I575A, G579A, D580A/K, H582A, W583A/F, H587A, R589A, W593A, R632A/Q, R470A, W583F) were introduced using the QuickChange XL site-directed mutagenesis kit (Stratagene, San Diego, CA, USA) and Pfu DNA Polymerase (Promega, Madison, WI, USA). pTagRFP-hTRPV6 I575A was kindly provided by the lab of M. Hediger (University of Bern, Bern, Switzerland). Forward and reverse primers for site-directed mutagenesis were synthesized by Eurofins genomics GmbH (Wien, Vienna, Austria). Intactness of the constructs in terms of sequence was confirmed by sequencing (Microsynth Austria GmbH, Wien, Vienna, Austria; Eurofins genomics GmbH, Wien, Vienna, Austria). In the present experiments, Tag-RFP-labeled constructs were implemented for NFAT screens, patch clamp measurements, and Fura-2-based Ca^2+ imaging, while for R.Geco1.2 measurements, TRPV6 WT and mutants were used which carried an EYFP label at the N-terminus (pEYFP-C1 vector) to avoid spectral overlap. R.Geco1.2 was purchased from Addgene (No. 45494), and mCherry-CRY2-5ptase OCRL was established in the lab of P. De Camilli and was derived from Addgene (No. 66836), as was CIBN-CAAX (No. 79574). Plasmids encoding for mCerulean3-CRY2-5′ ptase OCRL, YFP-CIBN-CAAX, and the mCherry-tagged PH domain were provided by K. Groschner (Medical University of Graz, Graz, Austria). […] CFP-NFAT (NFATc1, equivalent to NFAT2) was kindly provided by R. Kehlenbach (Scripps Research Institute, La Jolla, CA, USA).
Cultivation of human embryonic kidney (HEK) 293 cells occurred in DMEM supplemented with 10% fetal calf serum, penicillin (100 U/mL), and streptomycin (100 µg/mL) at 37 °C under humidified atmosphere containing 5% CO2. Transient transfection was performed 20–24 h prior to experiments using the TransFectin lipid reagent (Bio-Rad, Hercules, CA, USA), in accordance with the instructions of the supplier. For Ca^2+ imaging using R.Geco1.2, 2 μg of the indicator-encoding plasmid were additionally transfected, while 1 μg plasmid DNA was routinely used per construct in all other cases. For patch clamp experiments, cells were reseeded on poly-L-lysine-coated glass slides at least 4 h prior to experiments. To exclude mycoplasma contaminations, culture supernatants were regularly tested by means of the VenorGem Advanced Mycoplasma Detection kit (VenorGEM, Berlin, Germany).
Electrophysiological experiments were performed at 20 °C to 24 °C in whole-cell recording configurations of the patch clamp technique. A Ag/AgCl electrode was used as a reference electrode. The implemented voltage ramp protocol included a holding potential of +50 mV, wherefrom voltage was ramped from −90 mV to +90 mV within 200 ms with an interval of 5 s between individual ramps. For the time courses, the inward current density at −74 mV was considered. The internal pipette solution contained 145 mM cesium methane sulfonate, 8 mM NaCl, 3.5 mM MgCl2, 10 mM HEPES, and 20 mM EGTA (pH 7.2). For electrophysiological measurements, the basic extracellular solution was composed of 145 mM NaCl, 5 mM CsCl, 1 mM MgCl2, 10 mM HEPES, 10 mM glucose, and 10 mM CaCl2 (pH 7.4). Leak correction of currents was performed by subtracting the residual current after 1 mM La^3+ application at the end of the experiment. The liquid junction potential was determined as 12 mV; the voltages were not adjusted. Clampfit 11.1.0.23 and OriginPro 2020b software were used for data analysis. All experiments were conducted on a minimum of two different days.

Another series has as its system TRPV6 G488R. The experiment in a line: Whole-cell patch clamp, TRPV6 G488R. It is filed as cell-based, human. To be noted: HEK293 cells; for inhibition of current (in words): Figure 2D.
From the text: as §1
Cultivation of human embryonic kidney (HEK) 293 cells occurred in DMEM supplemented with 10% fetal calf serum, penicillin (100 U/mL), and streptomycin (100 µg/mL) at 37 °C under humidified atmosphere containing 5% CO2. Transient transfection was performed 20–24 h prior to experiments using the TransFectin lipid reagent (Bio-Rad, Hercules, CA, USA), in accordance with the instructions of the supplier. For Ca^2+ imaging using R.Geco1.2, 2 μg of the indicator-encoding plasmid were additionally transfected, while 1 μg plasmid DNA was routinely used per construct in all other cases. […]
(§2) Electrophysiological experiments were performed at 20 °C to 24 °C in whole-cell recording configurations of the patch clamp technique. […] The liquid junction potential was determined as 12 mV; the voltages were not adjusted. […]

For a further series, the system named is TRPV6 R492Q. The experiment in a line: Whole-cell patch clamp, TRPV6 R492Q. It is filed as cell-based, human. As to conditions: HEK293 cells, p < 0.05.
From the text: N-terminally TagRFP-labeled human TRPV6 (725 aa) was kindly provided by R. Bhardwaj and M. Hediger (University of Bern, Bern, Switzerland). This variant is translated from the first ATG codon and thus deviates from the non-ATG-initiated protein which is expressed in vivo (accession number NM_018646.6) by lacking 40 amino acids of the very N-terminus. For N-terminal labeling with EYFP, TRPV6 was cloned into pEYFP-C1 (Clontech) via EcoRI and SacII restriction sites. Mutations (F468A, R470A, F472A, K484A/Q, G488R, R492A/Q, I575A, G579A, D580A/K, H582A, W583A/F, H587A, R589A, W593A, R632A/Q, R470A, W583F) were introduced using the QuickChange XL site-directed mutagenesis kit (Stratagene, San Diego, CA, USA) and Pfu DNA Polymerase (Promega, Madison, WI, USA). pTagRFP-hTRPV6 I575A was kindly provided by the lab of M. Hediger (University of Bern, Bern, Switzerland). Forward and reverse primers for site-directed mutagenesis were synthesized by Eurofins genomics GmbH (Wien, Vienna, Austria). Intactness of the constructs in terms of sequence was confirmed by sequencing (Microsynth Austria GmbH, Wien, Vienna, Austria; Eurofins genomics GmbH, Wien, Vienna, Austria). In the present experiments, Tag-RFP-labeled constructs were implemented for NFAT screens, patch clamp measurements, and Fura-2-based Ca^2+ imaging, while for R.Geco1.2 measurements, TRPV6 WT and mutants were used which carried an EYFP label at the N-terminus (pEYFP-C1 vector) to avoid spectral overlap. R.Geco1.2 was purchased from Addgene (No. 45494), and mCherry-CRY2-5ptase OCRL was established in the lab of P. De Camilli and was derived from Addgene (No. 66836), as was CIBN-CAAX (No. 79574). Plasmids encoding for mCerulean3-CRY2-5′ ptase OCRL, YFP-CIBN-CAAX, and the mCherry-tagged PH domain were provided by K. Groschner (Medical University of Graz, Graz, Austria). […]
as §2

As for `Cc1cccc(C2CCC(N3CCN(c4cccnc4)CC3)CC2)c1.O=C(O)C(F)(F)F` (stereo not drawn) [cis-22a], on TRPV6 WT (HEK293 cells), the “re-activation after washout with DMSO” value is listed as “no re-activation occurred”. Further, the “inhibition of current (in words)” value was “almost complete block” at TRPV6 WT (HEK293 cells, 10 µM cis-22a, after 0.1 µM, Figure 2D); “not inhibited” with TRPV6 G488R (0.1 µM cis-22a, 10 mM Ca2+); “essentially unaffected” with TRPV6 G488R (10 µM cis-22a (hundredfold higher dose), after 0.1 µM). In addition, the inhibition of current against TRPV6 WT (HEK293 cells, 10 μM cis-22a, 10 mM Ca2+, relative to La3+ block, Figure 4C) is reported as ~ 98%. For the same compound, the “current inhibition vs TRPV6 WT” value in the series with TRPV6 R492Q (0.1 μM cis-22a) was “significantly reduced”; in the series on TRPV6 R492Q (10 μM cis-22a, after 0.1 μM), “significantly reduced inhibition”.
At TRPV6 WT, `CCCCCCCCCCCCCCCC(=O)N[C@@H](Cc1c[nH]cn1)C(=O)N[C@@H](CCCNC(=N)N)C(=O)N[C@@H](CCC(N)=O)C(=O)N[C@@H](CCCCN)C(=O)N[C@@H](Cc1c[nH]cn1)C(=O)N[C@@H](Cc1ccccc1)C(=O)N[C@@H](CCC(=O)O)C(=O)N[C@@H](CCCCN)C(=O)N[C@@H](CCCNC(=N)N)C(=O)N[C@@H](CCCNC(=N)N)C(N)=O` [pal-PIP2 peptide] (Palmitoyl-HRQKHFEKRR-NH2) registered an IC50 of 4.47 µM. Further, on TRPV6 WT (HEK293, read-out: apparent inhibition of current), the inhibition at 20 µM was approximately 63%. Further, the inhibition at 10 µM is approximately 56% at TRPV6 WT (HEK293, read-out: inhibition of current); 51.6% at TRPV6 WT (HEK293, read-out: mean percentage of inhibition (current)); 54% on TRPV6 WT (HEK293, read-out: mean percentage of inhibition (residual current)). In addition, on TRPV6 WT (HEK293 cells), the “re-activation after washout with DMSO” value is “no re-activation occurred”. Moreover, the “Ca2+ selectivity” value on TRPV6 WT (HEK293 cells, 10 μM pal-PIP2 peptide, current-voltage relationship, Figure S1D) is listed as “remained unchanged”. Besides, the “reduction of current density (in words)” value on TRPV6 WT (HEK293 cells, Figure 1C,D, S1B–D) is “reduced in a dose-dependent manner”. Besides, on TRPV6 WT (HEK293 cells, Hill fit, 0.1 μM to 30 μM), the “Hill coefficient of dose–response” value is recorded as 1.95. Moreover, the “effect at further increased concentration” value on TRPV6 WT (HEK293 cells, above 30 μM up to 100 μM, supposedly due to increased DMSO concentration) is recorded as “rapid membrane rupture or leaky measurements”. In addition, the “maximum inhibition of TRPV6 currents (plateau)” value on TRPV6 WT (HEK293 cells, plateau from 20 μM on) is “about 60%”. Also, the inhibition of current in the series with TRPV6 G488R (10 μM pal-PIP2 peptide, relative to 1 mM La3+, n=4, Figure S1E) is on record as ~ 4%. The “apparent inhibition of current” value in the series with TRPV6 G488R (20 μM pal-PIP2 peptide, 10 mM Ca2+, relative to 1 mM La3+, Figure 2B) was “about 24%”. Further, the “sensitivity to peptide-based PIP2 sequestration vs WT” value in the series on TRPV6 R492Q (10 μM pal-PIP2 peptide, Figure 4D) is listed as “significantly reduced sensitivity”.
